Assay results: patent US20070249670A1, “Glycogen Phosphorylase Inhibitor Compounds and Pharmaceutical Compositions Thereof” (SMITHKLINE BEECHAM CORPORATION, priority 2004, published 2007)

Target: T1, human liver glycogen phosphorylase a (HLGPa) (Homo sapiens, UniProt P06737)
T1 construct: creating a full-length cDNA fused at the 5′ end to codons for methionine-glycine-alanine-histidine; 6xHis tag (leader Met-Gly-Ala-His6-Gly-Gly) (N); made in house; host or cells: E. coli (bacterial expression plasmid pTXK1007LTev)
T1 sequence (P06737 2-847 limits assumed): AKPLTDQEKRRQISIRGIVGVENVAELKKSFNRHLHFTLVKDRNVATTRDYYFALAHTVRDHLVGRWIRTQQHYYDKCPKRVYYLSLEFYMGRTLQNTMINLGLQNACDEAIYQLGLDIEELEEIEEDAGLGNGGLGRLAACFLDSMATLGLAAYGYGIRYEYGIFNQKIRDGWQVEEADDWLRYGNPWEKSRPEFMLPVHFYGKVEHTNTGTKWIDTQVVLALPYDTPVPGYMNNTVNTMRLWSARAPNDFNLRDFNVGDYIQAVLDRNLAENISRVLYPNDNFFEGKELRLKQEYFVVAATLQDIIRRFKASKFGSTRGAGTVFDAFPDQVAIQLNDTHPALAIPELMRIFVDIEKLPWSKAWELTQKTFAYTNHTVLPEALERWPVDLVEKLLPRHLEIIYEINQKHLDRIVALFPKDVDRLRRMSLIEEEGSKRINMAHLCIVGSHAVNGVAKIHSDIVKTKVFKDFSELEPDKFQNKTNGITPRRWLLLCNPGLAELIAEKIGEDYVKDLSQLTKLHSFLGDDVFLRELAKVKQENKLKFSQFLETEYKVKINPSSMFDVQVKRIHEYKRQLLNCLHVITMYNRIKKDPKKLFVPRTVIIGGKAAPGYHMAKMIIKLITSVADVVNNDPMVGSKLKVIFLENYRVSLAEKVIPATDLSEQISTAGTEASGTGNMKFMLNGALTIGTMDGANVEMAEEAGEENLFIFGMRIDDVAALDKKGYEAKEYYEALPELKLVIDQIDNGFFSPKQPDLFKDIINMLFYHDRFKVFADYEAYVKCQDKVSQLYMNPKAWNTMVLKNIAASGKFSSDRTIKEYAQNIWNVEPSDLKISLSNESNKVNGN
Assay: Human liver glycogen phosphorylase a enzymatic activity assay (coupled, fluorescent resorufin readout, with and without 10 mM glucose)
Assay type: biochemical

[1] = human liver glycogen phosphorylase a enzymatic activity assay
[2] = human liver glycogen phosphorylase a, table does not say whether with or without 10 mM glucose

IC50 [1] [nM] | IC50 [2] [nM] | SMILES
100 | – | Cc1cccc(C)c1NC(=O)Nc1cc(-c2cccs2)ccc1C(=O)N[C@H](C(=O)O)C1CCCCC1 [Example 183, (2S)-Cyclohexyl({[2-({[(2,6-dimethylphenyl)amino]carbonyl}amino)-4-(2-thienyl)phenyl]carbonyl}amino)ethanoic acid]
220 | – | Cc1cccc(C)c1NC(=O)Nc1cc(-c2ccsc2)ccc1C(=O)N[C@H](C(=O)O)C1CCCCC1 [Example 184, (2S)-Cyclohexyl({[2-({[(2,6-dimethylphenyl)amino]carbonyl}amino)-4-(3-thienyl)phenyl]carbonyl}amino)ethanoic acid]
170 | – | Cc1cccc(C)c1NC(=O)Nc1cc(-c2ccncc2)ccc1C(=O)N[C@H](C(=O)O)C1CCCCC1 [Example 185, (2S)-Cyclohexyl({[2-({[(2,6-dimethylphenyl)amino]carbonyl}amino)-4-(4-pyridinyl)phenyl]carbonyl}amino)ethanoic acid]
341 | – | O=C(Cc1c(Cl)cc(Cl)cc1Cl)Nc1cc(-c2ccccc2)ccc1C(=O)N[C@H](C(=O)O)C1CCCCC1 [Example 186, (2S)-Cyclohexyl{[(3-{[(2,4,6-trichlorophenyl)acetyl]amino}-4-biphenylyl)carbonyl]amino}ethanoic acid]
34 | – | Cc1cccc(C)c1NC(=O)Nc1cc(-c2ccc(O)cc2)ccc1C(=O)N[C@H](C(=O)O)C1CCCCC1 [Example 187, (2S)-Cyclohexyl({[3-({[(2,6-dimethylphenyl)amino]carbonyl}amino)-4′-hydroxy-4-biphenylyl]carbonyl}amino)ethanoic acid]
74 | – | Cc1cccc(C)c1NC(=O)Nc1cc(-c2ccc(F)c(F)c2)ccc1C(=O)N[C@H](C(=O)O)C1CCCCC1 [Example 188, (2S)-Cyclohexyl({[3-({[(2,6-dimethylphenyl)amino]carbonyl}amino)-3′,4′-difluoro-4-biphenylyl]carbonyl}amino)ethanoic acid]
330 | – | Cc1cccc(C)c1NC(=O)Nc1cc(-c2cncnc2)ccc1C(=O)N[C@H](C(=O)O)C1CCCCC1 [Example 189, (2S)-Cyclohexyl({[2-({[(2,6-dimethylphenyl)amino]carbonyl}amino)-4-(5-pyrimidinyl)phenyl]carbonyl}amino)ethanoic acid]
700 | – | Cc1cccc(C)c1NC(=O)Nc1cc(F)ccc1C(=O)N[C@H](C(=O)O)C1CCCCC1 [Example 190, (2S)-Cyclohexyl({[2-({[(2,6-dimethylphenyl)amino]carbonyl}amino)-4-fluorophenyl]carbonyl}amino)ethanoic acid]
32 | – | COc1ccc(-c2ccc(C(=O)N[C@H](C(=O)O)C3CCCCC3)c(NC(=O)Nc3c(C)cccc3C)c2)cc1 [Example 191, (2S)-Cyclohexyl({[3-({[(2,6-dimethylphenyl)amino]carbonyl}amino)-4′-(methyloxy)-4-biphenylyl]carbonyl}amino)ethanoic acid]
120 | – | Cc1cc(C)c(NC(=O)Nc2cc(F)ccc2C(=O)N[C@H](C(=O)O)C2CCCCC2)c(C)c1 [Example 192, (2S)-Cyclohexyl({[4-fluoro-2-({[(2,4,6-trimethylphenyl)amino]carbonyl}amino)phenyl]carbonyl}amino)ethanoic acid]
7 | – | COc1ccc(-c2ccc(C(=O)N[C@H](C(=O)O)C3CCCCC3)c(NC(=O)Nc3c(C)cc(C)cc3C)c2)cc1 [Example 193, (2S)-Cyclohexyl({[4′-(methyloxy)-3-({[(2,4,6-trimethylphenyl)amino]carbonyl}amino)-4-biphenylyl]carbonyl}amino)ethanoic acid]
11 | – | Cc1cc(C)c(NC(=O)Nc2cc(-c3ccc(O)cc3)ccc2C(=O)N[C@H](C(=O)O)C2CCCCC2)c(C)c1 [Example 194, (2S)-Cyclohexyl({[4′-hydroxy-3-({[(2,4,6-trimethylphenyl)amino]carbonyl}amino)-4-biphenylyl]carbonyl}amino)ethanoic acid]
550 | – | Cc1cc(C)c(NC(=O)Nc2cc([N+](=O)[O-])ccc2C(=O)N[C@H](C(=O)O)C2CCCCC2)c(C)c1 [Example 195, (2S)-Cyclohexyl({[4-nitro-2-({[(2,4,6-trimethylphenyl)amino]carbonyl}amino)phenyl]carbonyl}amino)ethanoic acid]
110 | – | Cc1cc(C)c(NC(=O)Nc2cc(N)ccc2C(=O)N[C@H](C(=O)O)C2CCCCC2)c(C)c1 [Example 196, (2S)-({[4-Amino-2-({[(2,4,6-trimethylphenyl)amino]carbonyl}-amino)phenyl]carbonyl}amino)(cyclohexyl)ethanoic acid]
14 | – | Cc1cc(C)c(NC(=O)Nc2cc(-c3ccc([N+](=O)[O-])cc3)ccc2C(=O)N[C@H](C(=O)O)C2CCCCC2)c(C)c1 [Example 197, (2S)-Cyclohexyl({[4′-nitro-3-({[(2,4,6-trimethylphenyl)amino]carbonyl}amino)-4-biphenylyl]carbonyl}amino)ethanoic acid]
27 | – | Cc1cc(C)c(NC(=O)Nc2cc(-c3ccc(CO)cc3)ccc2C(=O)N[C@H](C(=O)O)C2CCCCC2)c(C)c1 [Example 198, (2S)-Cyclohexyl({[4′-(hydroxymethyl)-3-({[(2,4,6-trimethylphenyl)amino]carbonyl}amino)-4-biphenylyl]carbonyl}amino)ethanoic acid]
– | 4 | Cc1cc(C)c(NC(=O)Nc2cc(-c3ccc(N)cc3)ccc2C(=O)N[C@H](C(=O)O)C2CCCCC2)c(C)c1 [Example 199, (2S)-({[4′-Amino-3-({[(2,4,6-trimethylphenyl)amino]carbonyl}amino)-4-biphenylyl]carbonyl}amino)(cyclohexyl)ethanoic acid]
– | 130 | O=C(Nc1cc(-c2ccccc2)ccc1C(=O)N[C@H](C(=O)O)C1CCCCC1)Nc1c(Cl)cc(Cl)cc1Cl [Example 200, (2S)-Cyclohexyl({[3-({[(2,4,6-trichlorophenyl)amino]carbonyl}amino)-4-biphenylyl]carbonyl}amino)ethanoic acid]
– | 670 | COc1ccc(-c2ccc(C(=O)N[C@H](C(=O)O)C(C)(C)C)c(NC(=O)Nc3c(Cl)cc(Cl)cc3Cl)c2)cc1 [Example 201, 3-Methyl-N-{[4′-(methyloxy)-3-({[(2,4,6-trichlorophenyl)amino]carbonyl}amino)-4-biphenylyl]carbonyl}-L-valine]
– | 140 | COc1ccc(-c2ccc(C(=O)N[C@H](C(=O)O)C(C)(C)C)c(NC(=O)Nc3c(C)cc(C)cc3C)c2)cc1 [Example 202, 3-Methyl-N-{[4′-(methyloxy)-3-({[(2,4,6-trimethylphenyl)amino]carbonyl}amino)-4-biphenylyl]carbonyl}-L-valine]
– | 75 | O=C(Nc1cc(-c2ccccc2)ccc1C(=O)N[C@H](C(=O)O)C1CCCCC1)Nc1c(Cl)cccc1Cl [Example 203, (2S)-Cyclohexyl({[3-({[(2,6-dichlorophenyl)amino]carbonyl}amino)-4-biphenylyl]carbonyl}amino)ethanoic acid]
– | 190 | Cc1cc(C)c(NC(=O)Nc2cc(-c3ccc(OC(F)(F)F)cc3)ccc2C(=O)N[C@H](C(=O)O)C2CCCCC2)c(C)c1 [Example 204, (2S)-Cyclohexyl({[4′-[(trifluoromethyl)oxy]-3-({[(2,4,6-trimethylphenyl)amino]carbonyl}amino)-4-biphenylyl]carbonyl}amino)ethanoic acid]
– | 140 | COc1ccc(-c2ccc(C(=O)N[C@H](c3nn[nH]n3)C3CCCCC3)c(NC(=O)Nc3c(C)cc(C)cc3C)c2)cc1 [Example 205, N—[(S)-cyclohexyl(1H-tetrazol-5-yl)methyl]-4′-(methyloxy)-3-({[(2,4,6-trimethylphenyl)amino]carbonyl}amino)-4-biphenylcarboxamide]
– | 96 | CNC(=O)Nc1ccc(C(=O)N[C@H](C(=O)O)C2CCCCC2)c(NC(=O)Nc2c(C)cc(C)cc2C)c1 [Example 206]
– | 16100 | CCCCN(CCCC)c1ccc(C(=O)N[C@H](C(=O)O)C2CCCCC2)c(NC(=O)Nc2c(C)cc(C)cc2C)c1 [Example 207, (2S)-Cyclohexyl({[4-(dibutylamino)-2-({[(2,4,6-trimethylphenyl)amino]carbonyl}amino)phenyl]carbonyl}amino)ethanoic acid]
– | 130 | O=C(Nc1cc(F)ccc1C(=O)N[C@H](C(=O)O)C1CCCCC1)Nc1c(Cl)cc(OC(F)(F)F)cc1Cl [Example 208, (2S)-Cyclohexyl{[(2-{[({2,6-dichloro-4-[(trifluoromethyl)oxy]phenyl}amino)carbonyl]amino}-4-fluorophenyl)carbonyl]amino}ethanoic acid]
– | 14 | Cc1cc(C)c(NC(=O)Nc2cc(-c3ccc(F)c(F)c3)ccc2C(=O)N[C@H](C(=O)O)C2CCCCC2)c(C)c1 [Example 209, (2S)-Cyclohexyl({[3′,4′-difluoro-3-({[(2,4,6-trimethylphenyl)amino]carbonyl}amino)-4-biphenylyl]carbonyl}amino)ethanoic acid]
